Consider 15 compounds from PubChem BioAssay (NCI).

The structures appear in SMILES notation. Values joined by “and” are separate entries in the source; they are usually repeats but may differ in a detail not shown here. Equal values may be shown once.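 Method: 48-hour compound exposure of cells in 96-well plates, five concentrations, linear interpolation of endpoints. GI50: concentration for 50% inhibition of growth. At the TGI there is no net growth.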 Where a SMILES comes first, the peptide text is derived from it. [ ]: non-standard residue; d: D form. The star is where a group is joined. Boc = CC(C)(C)OC(=O)*

Some test systems named below: IGROV1 ovarian; SF-539 CNS; HOP-62 NSCLC; MOLT-4 leukemia; KM12 colon; HCT-15 colon; ACHN renal; T-47D breast; K-562 leukemia; RXF 393 renal.
Test in all cases: NCI-60 cell line screen, 48 h

Consider `O=C(NNC(=O)c1csc(NC(=S)NC2CCCCC2)n1)c1ccccc1`, for which the TGI with IGROV1 ovarian is 17.7 µM; with SF-539 CNS it was 31.6 µM; in the assay with HOP-62 NSCLC, 32.5 µM; in the assay with MOLT-4 leukemia, 44.9 µM; in the assay with KM12 colon, 28.8 µM; in the assay with HCT-15 colon it was 13 µM. The TGI came to 43.9 µM in the assay on ACHN renal and 17.3 µM in the assay on T-47D breast.

Turning to `O=C(O)C1CCCCN1c1ccccc1[N+](=O)[O-]` (stereo not given), the TGI in the assay on K-562 leukemia, in the assay with IGROV1 ovarian, in the assay on RXF 393 renal, in the assay on SF-539 CNS, with HOP-62 NSCLC and in the assay with MOLT-4 leukemia was more than 100 µM in each case. For the same compound, the TGI with HCT-15 colon and in the assay on ACHN renal was more than 100 µM throughout.

For the compound `CC(C)Oc1c(-c2ccc(F)cc2)c(O)c2c3c1oc(=O)n3C=CC2C` (stereo not given), the TGI with K-562 leukemia worked out at 39.6 µM; with IGROV1 ovarian, 29.2 µM; with RXF 393 renal, 27.3 µM; in the assay with SF-539 CNS, 26.4 µM; with HOP-62 NSCLC, 28.6 µM; in the assay with MOLT-4 leukemia, 39.2 µM. The TGI in the assay on KM12 colon turned out to be 34.3 µM; in the assay with HCT-15 colon it was 29.7 µM; in the assay with ACHN renal, 27.6 µM.

Consider `O=C(N/N=C/c1cc(Br)cc(Br)c1[O-])c1ccccc1O.O=C(N/N=C/c1cc(Br)cc(Br)c1[O-])c1ccccc1O.[Co+2]`, for which the GI50 in the assay with K-562 leukemia was 0.643 µM. The TGI in the assay with K-562 leukemia came to 16.2 µM; in the assay with IGROV1 ovarian, 8.44 µM; with RXF 393 renal, 10.5 µM; with SF-539 CNS, 4.66 µM; with HOP-62 NSCLC it was 10.3 µM; in the assay with MOLT-4 leukemia it was 14.3 µM. Besides, the TGI in the assay with KM12 colon was determined as 21.1 µM; in the assay with HCT-15 colon, 14.4 µM; in the assay with ACHN renal, 11.1 µM.

With `Fc1ccc(C(OCCN2CC3CCC(C2)N3CCCc2ccccc2)c2ccc(F)cc2)cc1`, the TGI is 4.99 µM in the assay on K-562 leukemia; 21.1 µM in the assay on IGROV1 ovarian; 3.63 µM with SF-539 CNS; 21.3 µM in the assay with HOP-62 NSCLC; 9.01 µM with MOLT-4 leukemia; 12.2 µM with KM12 colon. Further, the values for the TGI in the assay on HCT-15 colon, in the assay on ACHN renal and in the assay with T-47D breast were 12.2 µM, 22.4 µM and 6.28 µM, respectively.

On to `COc1ccc2nc3cccc([N+](=O)[O-])c3c(NCCCO)c2c1`, for which the TGI was 0.0313 µM and 0.29 µM with IGROV1 ovarian; 0.00255 µM in the assay with RXF 393 renal; 0.00518 µM and 0.0418 µM in the assay on SF-539 CNS; 0.0157 µM and 0.0193 µM with HOP-62 NSCLC; 0.036 µM and 0.0847 µM with MOLT-4 leukemia; 0.0146 µM and 0.0141 µM in the assay on KM12 colon. Moreover, the GI50 is 0.00141 µM and 0.0132 µM with SF-539 CNS; 0.00282 µM with HOP-62 NSCLC; 0.00328 µM and 0.0181 µM with MOLT-4 leukemia; 0.00183 µM in the assay on KM12 colon; 0.0292 µM and 0.136 µM in the assay with T-47D breast.

Regarding `COC(=O)[C@H](Cc1ccc(O)cc1)NC(=O)[C@H](Cc1ccc(O)cc1)NC(=O)OC(C)(C)C` (Boc-Tyr-Tyr-OMe), the TGI with IGROV1 ovarian, in the assay on RXF 393 renal, with SF-539 CNS, with HOP-62 NSCLC, in the assay on KM12 colon and in the assay with HCT-15 colon was more than 100 µM each time. In the assay with ACHN renal, the TGI was more than 100 µM.

`N#Cc1c(O)c(/C=N/c2ncccn2)c(=O)n2c1[nH]c1ccccc12`: the TGI with K-562 leukemia, in the assay on IGROV1 ovarian, with RXF 393 renal, in the assay with SF-539 CNS, with MOLT-4 leukemia and in the assay on KM12 colon was more than 100 µM each time. Moreover, the TGI with HCT-15 colon and in the assay with T-47D breast was more than 100 µM throughout.

As for `Cc1ccc(N/C(SCc2ccccc2)=C(\C(Cl)=C(Cl)Cl)[N+](=O)[O-])c(C)c1`, the TGI with SF-539 CNS is 46.1 µM; in the assay with HOP-62 NSCLC, more than 100 µM; in the assay with MOLT-4 leukemia, more than 100 µM; in the assay with KM12 colon, more than 100 µM; with HCT-15 colon, 34.9 µM; in the assay with ACHN renal, more than 100 µM. In the assay on T-47D breast, this compound returned a TGI of 69.3 µM.

For the compound `CC(C)C[C@H](NC(=O)[C@H](CC(C)C)NC(=O)[C@@H](Cc1c[nH]c2ccccc12)NC(=O)[C@H](Cc1ccccc1)NC(=O)[C@@H](Cc1c[nH]c2ccccc12)NC(=O)[C@H](CCC(N)=O)NC(=O)[C@H](CCC(N)=O)NC(=O)[C@H]1CCCN1C(=O)[C@@H](N)CCCCN)C(N)=O` (H-K[dP]QQ[dW]F[dW]LL-NH2), the TGI in the assay with K-562 leukemia, in the assay on IGROV1 ovarian, in the assay with RXF 393 renal, in the assay with SF-539 CNS, with HOP-62 NSCLC and with MOLT-4 leukemia was more than 100 µM throughout. Besides, the TGI in the assay with KM12 colon and in the assay on HCT-15 colon was more than 100 µM in each case.

Consider `CC(=O)CC1=C(OC(C)C)C2(OCCO2)C1O` (stereo not given), for which the TGI in the assay with IGROV1 ovarian, in the assay with RXF 393 renal, in the assay on SF-539 CNS, in the assay on HOP-62 NSCLC, in the assay with MOLT-4 leukemia and with KM12 colon was more than 100 µM in each case. Further, the TGI in the assay on HCT-15 colon, with ACHN renal and in the assay on T-47D breast was more than 100 µM each time.

For the compound `CCOC(=O)c1cccc(NC(=O)CI)c1`, the TGI in the assay on IGROV1 ovarian was determined as 1.02 µM; in the assay on RXF 393 renal, 2.74 µM; with SF-539 CNS it was 1.31 µM; with HOP-62 NSCLC it was 2.44 µM; in the assay with MOLT-4 leukemia it was 0.221 µM; in the assay on KM12 colon, 3.66 µM. The TGI in the assay on ACHN renal worked out at 1.99 µM.

Turning to `Cc1ccc(N(C)S(=O)(=O)c2ccccc2[N+](=O)[O-])cc1`, the TGI in the assay on RXF 393 renal, in the assay with SF-539 CNS, in the assay on HOP-62 NSCLC, with KM12 colon, in the assay on HCT-15 colon and with ACHN renal was more than 100 µM throughout. The compound further registered a TGI with T-47D breast of more than 100 µM.

In the case of `CC1=C(C)SC(=C2Sc3nc(O)[nH]c(=O)c3S2)S1`, the TGI in the assay on K-562 leukemia, in the assay with IGROV1 ovarian, in the assay on RXF 393 renal, in the assay on SF-539 CNS, with HOP-62 NSCLC and in the assay with MOLT-4 leukemia was more than 100 µM throughout. In addition, the TGI with KM12 colon, in the assay with HCT-15 colon and in the assay on ACHN renal was more than 100 µM each time.

As to `Cc1cccc(N/C(Sc2ccccc2)=C(/C(Cl)=C(Cl)Cl)[N+](=O)[O-])c1`, the TGI was 57.8 µM with K-562 leukemia; 31.3 µM in the assay on SF-539 CNS; 40.1 µM with HOP-62 NSCLC; more than 100 µM in the assay on MOLT-4 leukemia; 48.6 µM in the assay on KM12 colon; 29.4 µM in the assay with HCT-15 colon. For the same compound, the TGI is 74.9 µM in the assay on ACHN renal and 42.7 µM in the assay with T-47D breast.
